Measured values taken from ChEMBL document CHEMBL5528041, “Ferroptosis-Based Therapeutic Strategies toward Precision Medicine for Cancer” (J Med Chem, 2024).
≈ marks a conversion by molar mass, not a printed value. Values belong to the compound of their own block, whether it stands above or below them.

Key:
HT-29 [1] = assay: Antiproliferative activity against human HT-29 cells assessed as inhibition of cell growth measured after 48 hrs by SRB assay; format: functional, cell-based; conditions: HT-29, 48 h
[2] = Antiproliferative activity against human CRC cells assessed as reduction in cell viability incubated for 48 hrs by MTT assay; format: functional, cell-based
HCT-116 [3] = assay: Antiproliferative activity against human HCT-116 cells assessed as reduction in cell growth incubated for 48 hrs by MTT assay; format: functional, cell-based; conditions: HCT-116, 48 h
PANC-1 = assay: Antiproliferative activity against human PANC-1 cells assessed as reduction in cell viability incubated for 48 hrs by resazurin dye based cell titer-blue viability assay; format: functional; conditions: PANC-1, 48 h
Panc1005 = assay: Antiproliferative activity against human Panc1005 cells assessed as reduction in cell growth incubated for 72 hrs by Cell titer-Glo luminescent cell viability assay; format: functional, cell-based; conditions: Panc1005, 72 h
BXPC-3 = assay: Antiproliferative activity against human BXPC-3 cells assessed as inhibition of cell proliferation treated for 72 hrs by resazurin dye-based fluorescence assay; format: functional; conditions: BXPC-3, 72 h
ASPC1 = assay: Cytotoxicity against human ASPC1 cells assessed as inhibition of cell growth by SRB assay; format: functional, cell-based
[4] = Antiproliferative activity against human HCCM-5 cells assessed as reduction in cell viability measured after 72 hrs by MTT assay; format: functional, cell-based; conditions: HCCM-5, 72 h
Huh-7 = assay: Cytotoxicity against human Huh-7 cells assessed as reduction in cell viability incubated for 72 hrs by MTT assay; format: functional, cell-based; conditions: Huh-7, 72 h
MDA-MB-231 = assay: Antiproliferative activity against human MDA-MB-231 cells assessed as inhibition of cell viability measured after 72 hrs by MTT assay; format: functional, cell-based; conditions: MDA-MB-231, 72 h
HCT-116 [5] = assay: Antiproliferative activity against human HCT-116 cells assessed as reduction in cell viability incubated for 48 hrs by WST-1 assay; format: functional, cell-based; conditions: HCT-116, 48 h
HT-29 [6] = assay: Antiproliferative activity against human HT-29 cells assessed as reduction in cell viability measured after 48 hrs by WST-1 assay; format: functional, cell-based; conditions: HT-29, 48 h
ID8 = assay: Cytotoxicity against mouse ID8 cells assessed as inhibition of cell viability measured after 24 hrs by MTT assay; format: functional, cell-based; conditions: ID8, 24 h
MC-38 = assay: Cytotoxicity against mouse MC-38 cells assessed as reduction in cell viability incubated for 24 hrs by MTS assay; format: functional, cell-based; conditions: MC-38, 24 h
B16 = assay: Cytotoxicity against mouse B16 cells assessed as inhibition of cell viability measured after 24 hrs by MTT assay; format: functional, cell-based; conditions: B16, 24 h
Hepa 1-6 = assay: Cytotoxicity against mouse Hepa1-6 cells assessed as inhibition of cell growth incubated for 24 hrs by MTT assay; format: functional, cell-based; conditions: Hepa1-6, 24 h
[7] = Cytotoxicity against mouse Hepa-1 cells assessed as reduction in cell viability incubated for 24 hrs by MTS assay; format: functional, cell-based; conditions: Hepa-1, 24 h

IC50 (PANC-1): 0.59 µM
IC50 (Panc1005): 0.59 µM
IC50 (BXPC-3): 0.59 µM
Compound: Oc1c([C@@H](Nc2ccccn2)c2cccc(Cl)c2Cl)ccc2cccnc12
IC50 (ASPC1): 0.59 µM

IC50 (MDA-MB-231): 10.6 µM
Compound: N#Cc1ccc(C(=O)/C=C/c2ccccc2Oc2ccccc2C=O)cc1

IC50 (HCT-116 [5]): 19 µg/mL (≈ 54.2 µM)
IC50 (HT-29 [6]): 10 µg/mL (≈ 28.5 µM)
Compound: C=C1CC[C@@H]2[C@](C)(CO)[C@H](O)CC[C@@]2(C)[C@@H]1C/C=C1/C(=O)OC[C@H]1O [ANDROGRAPHOLIDE]

The remaining lines, values behind:

Compound: CC(C)=CC/C=C(\C)[C@H]1CC[C@]2(C)[C@@H]1[C@H](O)C[C@@H]1[C@@]3(C)CC[C@H](O)C(C)(C)[C@@H]3[C@@H](O[C@@H]3O[C@H](CO)[C@@H](O)[C@H](O)[C@H]3O)C[C@]12C [GINSENOSIDE RH4]
IC50 (HT-29 [1]): 197 µM
IC50 [2]: 197 µM
IC50 (HCT-116 [3]): 178 µM

Compound: C/C=C/C#CC#C/C=C/c1ccco1
IC50 [4]: 59.7 µM
IC50 (Huh-7): 22.4 µM

Compound: CCOc1ccccc1-n1c(C(C)N2CCN(C(=O)COc3ccc(Cl)cc3)CC2)nc2ccccc2c1=O (configuration not stated) [ERASTIN]
IC50 (ID8): 1.2 µM
IC50 (MC-38): 0.5 µM
IC50 (B16): 5 µM
IC50 (Hepa 1-6): 0.5 µM
IC50 [7]: 0.5 µM
